Data on 22 compounds can be found in patent publication US8173689B2 (Novartis AG, priority 2006, dated 2012).

The target in assay [1] is T1, cytoplasmic domain of the human CSF-1R (Homo sapiens, UniProt P07333).
T1 construct: Recombinant protein corresponding to the cytoplasmic domain of the human CSF-1R; purchased Invitrogen Corporation, Carlsbad, Calif; PV3249
T1 sequence (P07333 539-972 limits assumed): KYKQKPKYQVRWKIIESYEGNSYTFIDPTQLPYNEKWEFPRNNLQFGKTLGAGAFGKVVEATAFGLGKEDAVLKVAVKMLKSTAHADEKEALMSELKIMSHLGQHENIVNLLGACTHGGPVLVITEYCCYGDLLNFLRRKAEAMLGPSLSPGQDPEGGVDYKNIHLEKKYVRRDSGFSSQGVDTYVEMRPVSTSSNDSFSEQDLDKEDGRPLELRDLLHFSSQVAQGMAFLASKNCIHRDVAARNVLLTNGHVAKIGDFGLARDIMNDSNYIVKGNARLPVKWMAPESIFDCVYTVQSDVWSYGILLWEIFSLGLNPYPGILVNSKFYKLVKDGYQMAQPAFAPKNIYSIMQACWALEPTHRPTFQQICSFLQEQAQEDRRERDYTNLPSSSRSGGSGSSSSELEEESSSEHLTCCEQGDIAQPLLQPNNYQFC
Nature of the assay: In vitro kinase assay for colony stimulating factor-1 receptor (AlphaScreen). Particulars: read-out: CSF-1R percent inhibition. Type of assay: biochemical. A digest of the protocol:
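Tyrosine phosphorylation of a peptide substrate by 4 nM recombinant cytoplasmic-domain enzyme is measured at 1 μM ATP in Mn2+/Mg2+-containing Hepes buffer, pH 7.5. Detection uses PT66 AlphaScreen beads after overnight incubation.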

In another assay the target is T2, kinase domain of cKIT (Homo sapiens, UniProt P10721).
T2 construct: The kinase domain of cKIT was assayed in 50 mM Hepes; purchased Upstate 14-559
Nature of the assay: Inhibition of cKIT kinase signaling in an in vitro biochemical assay (alphascreen). Particulars: read-out: cKit percent inhibition.

The target in the next assay is T3, kinase domain of PDGFRβ (Homo sapiens, UniProt P09619).
T3 construct: The kinase domain of PDGFRβ was assayed in 50 mM Hepes; purchased Invitrogen P3082
In words: Inhibition of PDGFRb kinase signaling in an in vitro biochemical assay (alphascreen). The settings on record: read-out: PDGFRβ percent inhibition.

Assay [2] deals with MNFS60 (murine AML cells). Nature of the assay: Cell viability assay in MCSF dependent MNFS60 cells (Cell Titer Glo). The class given is cell-based. Particulars: Mus musculus, tested at about 1 μM, read-out: M-NFS-60 CP percent inhibition. The essentials:
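MNFS60 cells grown with 10 ng/ml MCSF (final) were exposed for 72 hrs at 37° C., 5% CO2 to 3-fold serial compound dilutions. Viable cells were measured by Cell Titer Glo luminescence, in triplicate, and EC50s were derived by curve fitting.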

Where [3] appears, read: tested at about 1 μM, compounds of Table 3.

Where two headings read alike, the source gives them in different places.

T2 sequence (P10721 589-937 limits assumed): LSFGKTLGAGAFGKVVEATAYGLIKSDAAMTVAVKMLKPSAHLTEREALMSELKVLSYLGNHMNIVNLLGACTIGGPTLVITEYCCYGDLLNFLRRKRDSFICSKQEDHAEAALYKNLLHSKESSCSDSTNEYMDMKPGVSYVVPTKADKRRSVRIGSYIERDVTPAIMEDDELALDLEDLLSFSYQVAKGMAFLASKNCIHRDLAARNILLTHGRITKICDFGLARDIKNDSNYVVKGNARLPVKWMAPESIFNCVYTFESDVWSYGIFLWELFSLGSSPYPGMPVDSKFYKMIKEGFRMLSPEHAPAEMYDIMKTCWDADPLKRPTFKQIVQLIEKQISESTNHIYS
T3 sequence (P09619 600-962 limits assumed): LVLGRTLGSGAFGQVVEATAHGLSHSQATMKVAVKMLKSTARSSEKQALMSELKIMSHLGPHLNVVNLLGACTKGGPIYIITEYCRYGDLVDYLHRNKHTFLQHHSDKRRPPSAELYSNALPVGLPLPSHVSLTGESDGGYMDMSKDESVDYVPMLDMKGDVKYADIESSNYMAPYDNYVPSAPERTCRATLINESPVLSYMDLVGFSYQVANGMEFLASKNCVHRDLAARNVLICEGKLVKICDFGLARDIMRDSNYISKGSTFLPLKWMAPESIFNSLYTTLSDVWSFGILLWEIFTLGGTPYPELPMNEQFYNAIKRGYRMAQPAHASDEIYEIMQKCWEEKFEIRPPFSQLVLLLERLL

For the compound `CNC(=O)c1cc(Oc2ccc3nc(NCc4ccc(OC)c(OC)c4)sc3c2)ccn1` [Compound 151, 4-[2-(3,4-Dimethoxy-benzyl-amino)-benzothiazol-6-yloxy]-pyridine-2-carboxylic acid methylamide], the inhibition at 1 µM in assay [1] (tested at about 1 μM) came out at 99%; on kinase domain of cKIT (tested at about 1 μM), 5%; at kinase domain of PDGFRβ (tested at about 1 μM) it was 0%; in assay [2] (MNFS60 cells) it was 26%.

Regarding `CNC(=O)c1cc(Oc2ccc3nc(NCc4ccccc4N4CCCCC4)sc3c2)ccn1` [Compound 153, 4-[2-(2-Piperidin-1-yl-benzylamino)-benzothiazol-6-yloxy]-pyridine-2-carboxylic acid methylamide], the inhibition at 1 µM was 97% in assay [1] (tested at about 1 μM), 0% on kinase domain of cKIT (tested at about 1 μM), 91% on kinase domain of PDGFRβ (tested at about 1 μM) and 63% in assay [2] (MNFS60 cells).

Consider `O[C@@H]1CCCC[C@H]1Nc1nc2ccc(Oc3ccnc(-c4cncs4)c3)cc2s1` [Compound 157], for which the inhibition at 1 µM in assay [1] (setting [3]) amounted to 100%; at kinase domain of cKIT (setting [3]) it was 43%; at kinase domain of PDGFRβ (setting [3]), 17%; in assay [2] (compounds of Table 3), 42%.

As to `CNC(=O)c1cc(Oc2ccc3nc(NCc4c(Cl)cccc4Cl)sc3c2)ccn1` [Compound 158, 4-[2-(2,6-Dichloro-benzylamino)-benzothiazol-6-yloxy]-pyridine-2-carboxylic acid methylamide], the inhibition at 1 µM in assay [1] (tested at about 1 μM) came out at 99%; on kinase domain of cKIT (tested at about 1 μM) it was 11%; on kinase domain of PDGFRβ (tested at about 1 μM), 2%; in assay [2] (MNFS60 cells), 1%.

On to `COCCNC(=O)c1cc(Oc2ccc3nc(NCC4CCCCC4)sc3c2)ccn1` [Compound 159, 4-(2-(cyclohexylmethyl-amino)benzothiazol-6-yloxy)-N-(2-methox.ylethyl)-pyridine-2-carboxamide], for which the inhibition at 1 µM in assay [1] (tested at about 1 μM) worked out at 99%; at kinase domain of cKIT (tested at about 1 μM), 12%; at kinase domain of PDGFRβ (tested at about 1 μM), 1%; in assay [2] (MNFS60 cells), 17%.

In the case of `CN(C)CCNC(=O)c1cc(Oc2ccc3nc(NCC4CCCCC4)sc3c2)ccn1` [Compound 160, 4-(2-(cyclohexylmethyl-amino)benzothiazol-6-yloxy)-N-(2-(dimethylamino)-ethyl)pyridine-2-carboxamide], the inhibition at 1 µM in assay [1] (tested at about 1 μM) turned out to be 99%; at kinase domain of cKIT (tested at about 1 μM), 13%; at kinase domain of PDGFRβ (tested at about 1 μM), 18%; in assay [2] (MNFS60 cells), 30%.

On to `CNC(=O)c1cc(Oc2ccc3nc(NCc4ccc(S(N)(=O)=O)cc4)sc3c2)ccn1` [Compound 161, 4-[2-(4-Sulfonamido-benzyl-amino)-benzothiazol-6-yloxy]-pyridine-2-carboxylic acid methylamide], for which the inhibition at 1 µM in assay [1] (tested at about 1 μM) stood at 100%; on kinase domain of cKIT (tested at about 1 μM) it was 0%; at kinase domain of PDGFRβ (tested at about 1 μM), 94%; in assay [2] (MNFS60 cells), 38%.

For the compound `O[C@@H]1CCCC[C@H]1Nc1nc2ccc(Oc3ccncc3-c3cn[nH]c3)cc2s1` [Example 188], the inhibition at 1 µM in assay [1] is 100%; at kinase domain of cKIT, 55%; at kinase domain of PDGFRβ it was 35%; in assay [2] (compounds of Table 3), 38%.

Take `Cn1cc(-c2cnccc2Oc2ccc3nc(N[C@@H]4CCCC[C@H]4O)sc3c2)cn1` [Example 189]: the inhibition at 1 µM in assay [1] (setting [3]) came to 100%; at kinase domain of cKIT (setting [3]) it was 31%; at kinase domain of PDGFRβ (setting [3]), 23%; in assay [2] (compounds of Table 3), 26%.

In the case of `O[C@@H]1CCCC[C@H]1Nc1nc2ccc(Oc3ccncc3-c3cccnc3)cc2s1` [Example 190], the inhibition at 1 µM in assay [1] (setting [3]) is 98%; on kinase domain of cKIT (setting [3]), 22%; at kinase domain of PDGFRβ (setting [3]), 19%; in assay [2] (compounds of Table 3) it was 5%.

Consider `Cc1cc(Oc2ccc3nc(NCC4CCCCC4)sc3c2)ccn1` [Example 202], for which the inhibition at 1 µM in assay [1] (setting [3]) is 100%; on kinase domain of cKIT (setting [3]), 32%; on kinase domain of PDGFRβ (setting [3]), 19%; in assay [2] (compounds of Table 3), 17%.

On to `Fc1cc2nccc(Oc3ccc4nc(NCC5CCCCC5)sc4c3)c2cc1F` [Example 211], for which the inhibition at 1 µM in assay [1] (setting [3]) amounted to 100%; on kinase domain of cKIT (setting [3]) it was 85%; on kinase domain of PDGFRβ (setting [3]), 50%; in assay [2] (compounds of Table 3), 23%.

On to `CNC(=O)c1cc(Oc2ccc3nc(N[C@@H]4CC=CC[C@@H]4C(N)=O)sc3c2)ccn1` [Example 217], for which the inhibition at 1 µM in assay [1] (setting [3]) came to 99%; on kinase domain of cKIT (setting [3]), 16%; at kinase domain of PDGFRβ (setting [3]) it was 23%; in assay [2] (compounds of Table 3), 0%.

Regarding `N#Cc1ccc2c(Oc3ccc4nc(NCC5CCCCC5)sc4c3)ccnc2c1` [Example 221, 4-(2-(cyclohexylmethylamino)benzo[d]thiazol-6-yloxy)quinoline-7-carbonitrile], the inhibition at 1 µM in assay [1] (setting [3]) came out at 100%; on kinase domain of cKIT (setting [3]), 97%; on kinase domain of PDGFRβ (setting [3]) it was 88%; in assay [2] (compounds of Table 3), 52%.

Take `O[C@@H]1CCCC[C@H]1Nc1nc2ccc(Oc3ccncc3Br)cc2s1` [Example 224, (1R,2R)-2-(6-(3-bromopyridin-4-yloxy)benzo[d]thiazol-2-ylamino)cyclohexanol]: the inhibition at 1 µM in assay [1] (setting [3]) amounted to 100%; at kinase domain of cKIT (setting [3]), 26%; at kinase domain of PDGFRβ (setting [3]), 0%; in assay [2] (compounds of Table 3) it was 33%.

Regarding `Fc1ccc2c(Oc3ccc4nc(NCC5CCCCC5)sc4c3)ccnc2c1` [Example 227, N-(cyclohexylmethyl)-6-(7-fluoroquinolin-4-yloxy)benzo[d]thiazol-2-amine], the inhibition at 1 µM in assay [1] (setting [3]) was 100%; on kinase domain of cKIT (setting [3]) it was 100%; at kinase domain of PDGFRβ (setting [3]), 47%; in assay [2] (compounds of Table 3), 65%.

Regarding `FC(F)(F)Oc1ccc2c(Oc3ccc4nc(NCC5CCCCC5)sc4c3)ccnc2c1` [Example 228, N-(cyclohexylmethyl)-6-(7-(trifluoromethoxy)quinolin-4-yloxy)benzo[d]thiazol-2-amine], the inhibition at 1 µM in assay [1] (setting [3]) came out at 100%; on kinase domain of cKIT (setting [3]), 70%; at kinase domain of PDGFRβ (setting [3]) it was 26%; in assay [2] (compounds of Table 3), 32%.

Consider `COC[C@H](Nc1nc2ccc(Oc3ccnc4ccccc34)cc2s1)[C@@H](O)c1ccccc1` [Example 233, (1S,2S)-3-methoxy-1-phenyl-2-(6-(quinolin-4-yloxy)benzo[d]thiazol-2-ylamino)propan-1-ol], for which the inhibition at 1 µM in assay [1] (setting [3]) was found to be 100%; on kinase domain of cKIT (setting [3]), 85%; at kinase domain of PDGFRβ (setting [3]) it was 84%; in assay [2] (compounds of Table 3), 59%.

For `CC[C@H](C)[C@@H](CO)Nc1nc2ccc(Oc3ccnc4ccccc34)cc2s1` [Example 234, (2S,3S)-3-methyl-2-(6-(quinolin-4-yloxy)benzo[d]thiazol-2-ylamino)pentan-1-ol], the inhibition at 1 µM in assay [1] (setting [3]) came to 100%; at kinase domain of cKIT (setting [3]), 64%; on kinase domain of PDGFRβ (setting [3]), 56%; in assay [2] (compounds of Table 3) it was 78%.

Take `OC[C@@H](Nc1nc2ccc(Oc3ccnc4ccccc34)cc2s1)c1ccccc1` [Example 235, (S)-2-phenyl-2-(6-(quinolin-4-yloxy)benzo[d]thiazol-2-ylamino)ethanol]: the inhibition at 1 µM in assay [1] (setting [3]) came to 100%; on kinase domain of cKIT (setting [3]) it was 100%; on kinase domain of PDGFRβ (setting [3]), 81%; in assay [2] (compounds of Table 3) it was 100%.

As to `OC[C@@H](Nc1nc2ccc(Oc3ccnc4ccccc34)cc2s1)C1CCCCC1` [Example 236, (S)-2-cyclohexyl-2-(6-(quinolin-4-yloxy)benzo[d]thiazol-2-ylamino)ethanol], the inhibition at 1 µM in assay [1] (setting [3]) worked out at 100%; at kinase domain of cKIT (setting [3]), 100%; on kinase domain of PDGFRβ (setting [3]), 97%; in assay [2] (compounds of Table 3) it was 100%.

For the compound `CC(C)C[C@@H](CO)Nc1nc2ccc(Oc3ccnc4ccccc34)cc2s1` [Example 238, (S)-4-methyl-2-(6-(quinolin-4-yloxy)benzo[d]thiazol-2-ylamino)pentan-1-ol], the inhibition at 1 µM is 100% in assay [1] (setting [3]), 100% on kinase domain of cKIT (setting [3]), 90% at kinase domain of PDGFRβ (setting [3]) and 100% in assay [2] (compounds of Table 3).
